Experiment [1] deals with GST-tagged recombinant human TYRO3 kinase domain (Homo sapiens (Human), UniProt Q06418). The note with it: read-out: TYRO3 enzyme IC50.
In experiment [2] the target is His-tagged recombinant human AXL cytoplasmic domain (Homo sapiens (Human), UniProt P30530). The note with it: read-out: AXL enzyme IC50.
Method: (§1) Compounds of Formula I were screened for their ability to inhibit AXL kinase using Invitrogen's LanthaScreen™ Eu Kinase Binding technology. […] After a 60-minute incubation at 22° C., the reaction was measured using a PerkinElmer EnVision multimode plate reader via TR-FRET dual wavelength detection, and the percent of control (POC) was calculated using a ratiometric emission factor. […] The POC values are fit to a 4 parameter logistic curve and the IC50 value is point where the curve crosses 50 POC.
The target of experiment [3] is His-tagged recombinant human MER cytoplasmic domain (Homo sapiens (Human), UniProt Q12866). The note with it: read-out: MER enzyme IC50.
Sequence of His-tagged recombinant human MER cytoplasmic domain (Q12866 527-999): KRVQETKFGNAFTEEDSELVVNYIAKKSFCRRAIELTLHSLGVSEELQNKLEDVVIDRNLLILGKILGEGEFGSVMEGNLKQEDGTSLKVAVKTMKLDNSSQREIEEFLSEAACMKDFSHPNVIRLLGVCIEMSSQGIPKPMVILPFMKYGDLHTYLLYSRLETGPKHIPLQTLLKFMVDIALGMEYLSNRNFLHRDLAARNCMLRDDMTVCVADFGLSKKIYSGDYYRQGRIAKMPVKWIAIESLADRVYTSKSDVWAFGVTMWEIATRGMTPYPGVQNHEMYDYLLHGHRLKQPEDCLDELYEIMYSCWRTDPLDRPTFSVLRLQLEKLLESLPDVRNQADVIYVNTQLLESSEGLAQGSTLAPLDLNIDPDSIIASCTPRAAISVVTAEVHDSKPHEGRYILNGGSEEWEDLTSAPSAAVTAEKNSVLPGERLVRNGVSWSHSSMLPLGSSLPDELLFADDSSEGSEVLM
Method: as §1

Sequence of GST-tagged recombinant human TYRO3 kinase domain (Q06418 518-790): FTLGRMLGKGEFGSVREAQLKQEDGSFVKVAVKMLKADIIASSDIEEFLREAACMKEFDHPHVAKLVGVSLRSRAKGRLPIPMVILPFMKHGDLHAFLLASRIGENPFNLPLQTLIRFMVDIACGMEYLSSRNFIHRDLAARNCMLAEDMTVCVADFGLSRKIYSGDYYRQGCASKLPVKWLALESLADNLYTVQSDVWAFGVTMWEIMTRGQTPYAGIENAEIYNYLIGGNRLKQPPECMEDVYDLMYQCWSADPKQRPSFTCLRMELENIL
Sequence of His-tagged recombinant human AXL cytoplasmic domain (P30530 473-894): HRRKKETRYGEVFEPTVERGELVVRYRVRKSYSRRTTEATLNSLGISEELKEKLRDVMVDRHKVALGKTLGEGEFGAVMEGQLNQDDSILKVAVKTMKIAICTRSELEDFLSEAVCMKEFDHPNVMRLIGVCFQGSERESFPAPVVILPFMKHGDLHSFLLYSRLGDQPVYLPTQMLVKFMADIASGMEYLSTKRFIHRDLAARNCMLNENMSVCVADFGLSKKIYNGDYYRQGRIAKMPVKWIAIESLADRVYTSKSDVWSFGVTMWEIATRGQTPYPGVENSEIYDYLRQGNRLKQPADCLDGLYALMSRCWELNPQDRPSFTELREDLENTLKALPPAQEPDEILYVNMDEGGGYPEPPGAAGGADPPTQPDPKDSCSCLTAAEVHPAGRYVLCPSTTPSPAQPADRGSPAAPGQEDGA

One may read the IC50 as the concentration that inhibits the measured activity by half. For the compound `C[C@H](CO)Nc1n[nH]c2nccc(Oc3ccc(NC(=O)C4(C)CCCN(c5ccc(F)cc5)C4=O)cc3F)c12` (stereo partly drawn) [Example 141, N-(3-fluoro-4-((3-(((R)-1-hydroxypropan-2-yl)amino)-1H-pyrazolo[3,4-b]pyridin-4-yl)oxy)phenyl)-1-(4-fluorophenyl)-3-methyl-2-oxopiperidine-3-carboxamide], the IC50 in experiment [1] was determined as 1000 nM; in experiment [2] it was 485 nM; in experiment [3], 178 nM.

Turning to `COCC(C)(C)Nc1n[nH]c2nccc(Oc3ccc(NC(=O)c4cn(C)c(=O)n(-c5ccc(F)cc5)c4=O)cc3F)c12` [Example 158, N-(3-fluoro-4-((3-((1-methoxy-2-methylpropan-2-yl)amino)-1H-pyrazolo[3,4-b]pyridin-4-yl)oxy)phenyl)-3-(4-fluorophenyl)-1-methyl-2,4-dioxo-1,2,3,4-tetrahydropyrimidine-5-carboxamide], the IC50 in experiment [1] amounted to 104 nM.

On to `Cc1c(C(=O)Nc2ccc(Oc3ccnc4[nH]nc(N[C@H](C)CO)c34)c(F)c2)c(=O)n(-c2ccccc2)n1C` [Example 86, (R)-N-(3-fluoro-4-((3-((1-hydroxypropan-2-yl)amino)-1H-pyrazolo[3,4-b]pyridin-4-yl)oxy)phenyl)-1,5-dimethyl-3-oxo-2-phenyl-2,3-dihydro-1H-pyrazole-4-carboxamide], for which, in experiment [1], the half-inhibitory concentration (IC50) is 104 nM.

For `C[C@H](CO)Nc1n[nH]c2nccc(Oc3ccc(NC(=O)C4CC5(CC5)CN(c5ccc(F)cc5)C4=O)cc3F)c12` (stereo partly drawn) [Example 140, N-(3-fluoro-4-((3-(((R)-1-hydroxypropan-2-yl)amino)-1H-pyrazolo[3,4-b]pyridin-4-yl)oxy)phenyl)-5-(4-fluorophenyl)-6-oxo-5-azaspiro[2.5]octane-7-carboxamide], the figures for the IC50 in experiment [1], in experiment [2] and in experiment [3] were 1000 nM, 355 nM and 161 nM, respectively.

As for `C[C@H](CO)Nc1n[nH]c2nccc(Oc3ccc(NC(=O)c4cn(C)n(-c5ccccc5)c4=O)cc3F)c12` [Example 87, (R)-N-(3-fluoro-4-((3-((1-hydroxypropan-2-yl)amino)-1H-pyrazolo[3,4-b]pyridin-4-yl)oxy)phenyl)-1-methyl-3-oxo-2-phenyl-2,3-dihydro-1H-pyrazole-4-carboxamide], the concentration for half-maximal inhibition (IC50) in experiment [1] worked out at 432 nM.

On to `CC(C)n1cc(C(=O)Nc2ccc(Oc3ccnc4[nH]nc(N[C@H](C)CO)c34)c(F)c2)c(=O)n(C(C)C)c1=O` [Example 95, (R)-N-(3-fluoro-4-((3-((1-hydroxypropan-2-yl)amino)-1H-pyrazolo[3,4-b]pyridin-4-yl)oxy)phenyl)-1,3-diisopropyl-2,4-dioxo-1,2,3,4-tetrahydropyrimidine-5-carboxamide], for which the IC50 in experiment [1] turned out to be 875 nM.

As for `CCn1nc(C(=O)Nc2ccc(Oc3ccnc4[nH]nc(N[C@@H](C)CO)c34)c(F)c2)c(=O)n(-c2ccc(F)c(F)c2)c1=O` [Example 132, (S)-4-(3,4-difluorophenyl)-2-ethyl-N-(3-fluoro-4-((3-((1-hydroxypropan-2-yl)amino)-1H-pyrazolo[3,4-b]pyridin-4-yl)oxy)phenyl)-3,5-dioxo-2,3,4,5-tetrahydro-1,2,4-triazine-6-carboxamide], the IC50 in experiment [1] came to 348 nM.

Consider `COCC(C)(C)Nc1n[nH]c2nccc(Oc3ccc(NC(=O)c4cn(CCO)c(=O)n(-c5ccc(F)cc5)c4=O)cc3F)c12` [Example 159, N-(3-fluoro-4-((3-((1-methoxy-2-methylpropan-2-yl)amino)-1H-pyrazolo[3,4-b]pyridin-4-yl)oxy)phenyl)-3-(4-fluorophenyl)-1-(2-hydroxyethyl)-2,4-dioxo-1,2,3,4-tetrahydropyrimidine-5-carboxamide], for which the IC50 in experiment [1] came out at 420 nM.

In the case of `CCn1nc(C(=O)Nc2ccc(Oc3ccnc4[nH]nc(N[C@H](C)CO)c34)c(F)c2)c(=O)n(-c2ccc(F)c(F)c2)c1=O` [Example 133, (R)-4-(3,4-difluorophenyl)-2-ethyl-N-(3-fluoro-4-((3-((1-hydroxypropan-2-yl)amino)-1H-pyrazolo[3,4-b]pyridin-4-yl)oxy)phenyl)-3,5-dioxo-2,3,4-5-tetrahydro-1,2,4-triazine-6-carboxamide], the IC50 in experiment [1] turned out to be 130 nM.

Consider `C[C@H](CO)Nc1n[nH]c2nccc(Oc3ccc(NC(=O)c4cn(C)n(-c5ccc(F)cc5)c4=O)cc3F)c12` [Example 88, (R)-N-(3-fluoro-4-((3-((1-hydroxypropan-2-yl)amino)-1H-pyrazolo[3,4-b]pyridin-4-yl)oxy)phenyl)-2-(4-fluorophenyl)-1-methyl-3-oxo-2,3-dihydro-1H-pyrazole-4-carboxamide], for which the IC50 in experiment [1] was 364 nM.

As for `COCC1(Nc2n[nH]c3nccc(Oc4ccc(NC(=O)c5ccnn(-c6ccc(F)cc6)c5=O)cc4F)c23)CCCC1` [Example 20, N-(3-fluoro-4-((3-((1-(methoxymethyl)cyclopentyl)amino)-1H-pyrazolo[3,4-b]pyridin-4-yl)oxy)phenyl)-2-(4-fluorophenyl)-3-oxo-2,3-dihydropyridazine-4-carboxamide], the IC50 in experiment [1] amounted to 536 nM.

Regarding `COC[C@@H](C)Nc1n[nH]c2nccc(Oc3ccc(NC(=O)c4cc(C5CC5)cn(-c5ccc(F)cc5)c4=O)nc3)c12` [Example 177, (R)-5-cyclopropyl-1-(4-fluorophenyl)-N-(5-((3-((1-methoxypropan-2-yl)amino)-1H-pyrazolo[3,4-b]pyridin-4-yl)oxy)pyridin-2-yl)-2-oxo-1,2-dihydropyridine-3-carboxamide], the IC50 in experiment [1] was 106 nM.

Consider `COC[C@@H](C)Nc1n[nH]c2nccc(Oc3ccc(NC(=O)c4cc(C(C)C)nn(-c5ccc(F)cc5)c4=O)cc3F)c12` [Example 175, (R)-N-(3-fluoro-4-((3-((1-methoxypropan-2-yl)amino)-1H-pyrazolo[3,4-b]pyridin-4-yl)oxy)phenyl)-2-(4-fluorophenyl)-6-isopropyl-3-oxo-2,3-dihydropyridazine-4-carboxamide], for which the IC50 in experiment [1] worked out at 292 nM.

For `C[C@H](CO)Nc1n[nH]c2nccc(Oc3ccc(NC(=O)C4CCCN(c5ccc(F)cc5)C4=O)cc3F)c12` (stereo partly drawn) [Example 101, N-(3-fluoro-4-((3-(((R)-1-hydroxypropan-2-yl)amino)-1H-pyrazolo[3,4-b]pyridin-4-yl)oxy)phenyl)-1-(4-fluorophenyl)-2-oxopiperidine-3-carboxamide], the IC50 in experiment [1] was 198 nM.

The values are drawn from patent US11104676B2 (priority 2018, dated 2021).
